# Like-named read-outs stand apart in the source and are kept apart here.
# Columns and labels:
# [1] = target: imidazoline-2 binding sites (I2BS); experiment: ^3H-BU99008 competition binding assay with unlabelled ligands in temporal cortex brain homogenate; parameters: species or system human
# Experimental: (§1) After 1 h incubation a similar protocol as saturation binding assay was done and the binding was quantified using the scintillation counter.
# (§2) The competition binding data was fitted and analysed using non-linear regression competitive-binding function of GraphPad Prism 8.3 software to determine IC50 (half-maximal inhibitory concentration) values.
# [2] = target: T1, monoamine oxidase B (MAO B) (Homo sapiens, UniProt P27338); experiment: ^3H-Deprenyl competition binding assay in temporal cortex brain homogenate; conditions: for IC50: vs 10 nM ^3H-Deprenyl, two-site fit
# T1 construct: from tissue; host or cells: large frozen postmortem human brain sections (control, sporadic AD, AβPParc carrier)
# T1 sequence (P27338 1-520): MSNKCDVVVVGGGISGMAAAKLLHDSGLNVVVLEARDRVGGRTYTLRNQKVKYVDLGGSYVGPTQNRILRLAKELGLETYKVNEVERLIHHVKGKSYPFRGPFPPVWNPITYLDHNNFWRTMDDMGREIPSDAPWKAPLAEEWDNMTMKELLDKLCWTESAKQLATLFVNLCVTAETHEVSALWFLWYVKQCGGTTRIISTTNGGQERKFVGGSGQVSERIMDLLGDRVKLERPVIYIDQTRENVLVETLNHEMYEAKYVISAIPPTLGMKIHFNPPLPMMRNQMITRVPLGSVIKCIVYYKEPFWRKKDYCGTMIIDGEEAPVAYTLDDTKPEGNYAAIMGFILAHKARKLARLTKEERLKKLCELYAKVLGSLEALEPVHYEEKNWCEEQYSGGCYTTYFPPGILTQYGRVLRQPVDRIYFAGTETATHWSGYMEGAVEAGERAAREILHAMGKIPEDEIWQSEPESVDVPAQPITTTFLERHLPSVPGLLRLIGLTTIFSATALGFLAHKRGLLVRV
# Experimental: as §1, §2
# [3] = target: imidazoline-2 binding sites (I2BS); experiment: ^3H-BU99008 competition binding with unlabelled BU99008 in the presence of MAO B inhibitors; parameters: species or system human; conditions: for IC50: unlabelled BU99008 alone
# Experimental: A similar protocol as saturation binding assay was performed after 1 h incubation and the binding was quantified using the scintillation counter.
# as §2
# [4] = test system: imidazoline-2 binding sites (I2BS); parameters: method as in PMID 29523627, PMID 24711648; conditions: rhesus brain, dose-dependent; ref [43], [51]; cited from earlier work
# [5] = test system: imidazoline-2 binding sites (I2BS); parameters: method as in PMID 29523627; conditions: human brain, pretreatment, highest dose of 80 mg; ref [43]; cited from earlier work
# [6] = AD temporal cortex, vs 1 nM ^3H-BU99008, two-site fit, read-out: IC50_1
# [7] = AD temporal cortex, vs 1 nM ^3H-BU99008, two-site fit, read-out: IC50_2
# [8] = CN temporal cortex, vs 1 nM ^3H-BU99008, two-site fit, read-out: IC50_2
# [9] = CN temporal cortex, vs 1 nM ^3H-BU99008, two-site fit, read-out: IC50_1
"IC50 [1, 8] [nM]","IC50 [1, 9] [nM]","proportion of Low-affinity (LA; 10^-7 to -6 M) binding sites ([1]; CN, ^3H-BU99008 competition) [%]",Structure (SMILES),"IC50 [1, 6] [nM]","IC50 [1, 7] [nM]","proportion of Low-affinity (LA; 10^-7 to -6 M) binding sites ([1]; AD, ^3H-BU99008 competition) [%]","proportion of High-affinity (HA; 10^-10 to -9 M) binding sites ([1]; CN, ^3H-BU99008 competition) [%]","proportion of Super high-affinity (SH; 10^-13 to -11 M) binding sites ([1]; CN, ^3H-BU99008 competition) [%]",further results
186,0.026,56,"Cl.c1ccc2nc(C3=NCCN3)ccc2c1 [BU224, 2-(4,5-Dihydroimidazol-2-yl)quinoline hydrochloride]",–,–,100,–,44,"IC50 ([1]; AD temporal cortex, vs 1 nM ^3H-BU99008, single binding site, read-out: IC50): 416 nM; ^11C-BU99008 signal throughout the brain after pretreatment [4]: significantly reduced"
150,0.34,82,"Cl.c1ccc2oc(C3=NCCN3)cc2c1 [2-BFI, 2-(Benzofuran-2-yl)-2-imidazoline hydrochloride]",0.041,165,–,18,–,"proportion of Super high-affinity (SH; 10^-13 to -11 M) binding sites ([1]; AD, ^3H-BU99008 competition): 19%"

# The next lines start with the compound.
Structure (SMILES),"IC50 [1, 8] [nM]","IC50 [1, 9] [nM]","proportion of Low-affinity (LA; 10^-7 to -6 M) binding sites ([1]; CN, ^3H-BU99008 competition) [%]","IC50 [1, 6] [nM]","IC50 [1, 7] [nM]","proportion of Low-affinity (LA; 10^-7 to -6 M) binding sites ([1]; AD, ^3H-BU99008 competition) [%]","proportion of High-affinity (HA; 10^-10 to -9 M) binding sites ([1]; CN, ^3H-BU99008 competition) [%]","proportion of Super high-affinity (SH; 10^-13 to -11 M) binding sites ([1]; CN, ^3H-BU99008 competition) [%]",further results
"Cn1c(C2=NCCN2)cc2ccccc21 [BU99008, 2-(4,5-dihydro-1H-imidazol-2-yl)-1-methyl-1H-indole]",2.45,–,–,1.43,342,22,75,25,"proportion of High-affinity (HA; 10^-10 to -9 M) binding sites ([1]; AD, ^3H-BU99008 competition): 78%; majority of binding to HA binding sites ([1]; both CN and AD cases, ^3H-BU99008 competition): 75–78%; majority of binding to LA sites [2]: 70–78%; IC50 ([2]; AD temporal cortex, read-out: IC50_1): 0.002 nM; IC50 ([2]; AD temporal cortex, read-out: IC50_2): 254 nM; IC50 ([2]; CN temporal cortex, read-out: IC50_1): 0.72 nM; IC50 ([2]; CN temporal cortex, read-out: IC50_2): 3110 nM; IC50 ([3]; AD (85 years), one-site, read-out: IC50): 1.73 nM; IC50 ([3]; CN (71 years), vs 1 nM ^3H-BU99008, read-out: IC50_2 (HA)): 2.81 nM"
c1ccc2c(c1)OCC(C1=NCCN1)O2 (stereo not drawn) [idazoxan],–,–,–,–,–,–,–,–,average block of ^11C-BU99008 uptake across all regions [5]: 60%
C[C@H](NCc1ccc(OCc2cccc(F)c2)cc1)C(N)=O [safinamide],–,–,–,–,–,–,–,–,"effect on binding of BU99008 to the SH binding sites ([3]; CN, ^3H-BU99008 competition): completely blocked; decrease in ^3H-BU99008 total binding ([3]; CN, lower concentration ranges [10^-14-10^-9]): 15–30%; effect on binding of BU99008 to HA binding sites ([3]; both CN and AD cases, increasing concentrations of inhibitor): not affected"

# From publication PMC8758481, “Astroglial tracer BU99008 detects multiple binding sites in Alzheimer’s disease brain” (Molecular Psychiatry, 2021)
